Legend:
HIVIIIB = HIVIIIB entry into / infection of A3.01 cells, p24 antigen; type: cell-based, HIV; settings: 100 μM, 30 minutes before virus
Method: FIG. 33. […] Cells were washed and incubated in complete medium at 5% CO2 and 37° C. for up to 10 days. […] B Concentration dependence of GSAO. […] Cells were washed, incubated in complete medium at 5% CO2 and 37° C. for 3 days and the conditioned medium collected and assayed for p24 antigen.
FIG. 34. Inhibition of HIVIIIB infection of A3.01 cells by GSAO.
A3.01 human T cells were exposed to GSAO for 30 minutes and then to HTLVIIIB virus for 2 hours after which the cells were washed and then cultured for up to 10 days. HTLVIIIB and A3.01 cells were obtained from the NIH AIDS Research and Reference Reagent Program, Rockville, Mass. Virus stocks were made and infectivity titer determined using A3.01 cells and the p24 antigen assay (Coulter, Miami, Fla.). A3.01 cells were cultured in RPMI medium containing 10% fetal calf serum. […] Cell numbers and cell viability were determined at the times specified by staining cells with trypan blue and counting using a Neubauer haemacytometer. Cell viability was measured as a percentage of live cells to total cells.

[1] = Stability of the trivalent arsenicals towards oxidation; type: physicochemical; settings: slowed by removal of O2, lower pH or glycine
Description: This oxidation can be slowed in three ways; removal of dissolved O2 from solutions containing the arsenoxides, lowering the pH of these solutions, or by addition of glycine to the solutions. Glycine is routinely used to prevent oxidation of the stock solutions of the trivalent organoarsenicals. Similar to the reaction between 2,3-dimercaptopropanol and R—As(OH)2 in which a 5-membered dithioarsonite (XI) is formed, reaction of glycine with R—As(OH)2 is thought to give a 5-membered cyclic 1,3,2-oxazarsolidin-5-one (XII).

PDI = assay: GSAO-B labelling of PDI on the endothelial cell surface; type: cell-based; settings: 100 μM GSAO-B, 30 minutes
Method: FIG. 17. PDI was one of the GSAO-B labelled proteins on the endothelial cell surface. HUVEC (5×10^6 cells in 0.75 mL) were labelled with GSAO-B (100 μM) for 30 minutes at 37° C. in the absence (lanes 1) or presence of DMP (400 μM) (lane 2). The cells were lysed and incubated with streptavidin-agarose beads to collect the biotin-labelled proteins. The labelled proteins were resolved on 4-15% SDS-PAGE, transferred to PVDF membrane, and blotted with anti-PDI monoclonal antibodies. The results represent labelling of 5×10^6 endothelial cells. The positions of Mr markers are shown at left.
BAE cells were labeled with GSAO-B in the absence or presence of DMP, lysed and incubated with streptavidin-agarose beads to collect the biotin-labeled proteins. The labeled proteins were eluted from the beads, resolved on SDS-PAGE, transferred to PVDF membrane, and blotted with anti-PDI polyclonal antibodies.

HMEC-1 or HUVE cells = assay: GSAO-B labelling of endothelial cell surface proteins; type: cell-based, human
Method: FIG. 16. Identification of endothelial cell surface proteins that contain closely spaced dithiols). A The surface of HMEC-1 or HUVE cells (2×10^6 cells in 0.4 mL) was labelled with GSAO-B (100 μM) for 30 minutes at room temperature in the absence (lanes 1 and 3) or presence of DMP (400 μM) (lane 2). The endothelial cells were lysed and the lysate from both incubations was resolved on 4-15% SDS-PAGE, transferred to PVDF membrane, and blotted with streptavidin peroxidase to detect the GSAO-B label. The results represent labelling of 3×10^4 HMEC-1 (lanes 1 and 2) of HUVE cells (lane 3). The positions of Mr markers are shown at left. B Densitometry profile of the surface labelled proteins (lanes 1 and 3). The apparent Mr's of the individual proteins are indicated.
Human umbilical vein endothelial cells (HUVEC) (Wall et al., 1978) and the human dermal microvascular endothelial cell line, HMEC-1 (Ades et al., 1992), were harvested and cultured as indicated. Endothelial cells (5×10^6) were detached from culture flasks using 5 mM EDTA in PBS at 37° C., washed 3 times with PBS, resuspended in PBS containing 100 μM of GSAO-B in the absence or presence of 400 μM DMP, and incubated for 30 minutes at room temperature. The cells were washed 3 times with 1 mL of PBS, resuspended in 0.2 mL of ice cold 50 mM Tris/HCl, pH 8 buffer containing 0.5 M NaCl, 1% Triton X-100, 10 μM leupeptin, 2 mM PMSF (Sigma Chemical Company, St, Louis, Mo.), 5 mM EDTA and 10 μM aprotinin (Bayer Australia Ltd., Sydney, NSW), and sonicated on ice. On some occasions the cell lysates were incubated with streptavidin-agarose (Sigma, Castle Hill, NSW) beads (25 μL of packed beads in a total volume of 1 mL) for 60 minutes at 4° C. with rotary mixing. Bound proteins were washed 5 times with 50 mM Tris/HCl, pH 8 buffer containing 0.15 M NaCl and 0.05% Triton X-100, resolved on SDS-PAGE, transferred to PVDF membrane, and the GSAO-B-labeled proteins detected by Western blot.

cell surface CD4 = molecular target: T1, cell surface CD4 (Homo sapiens, UniProt P01730); assay: Labelling of cell surface CD4 on CEM-T4 cells; type: cell-based; settings: 100 μM, 30 min
T1 construct: host or cells: CEM-T4
Method: FIG. 32. Labelling of cell surface CD4 with GSAO-B. CEM-T4 were labelled with either MPB or GSAO-B. The biotin-labelled proteins were collected on streptavidin-agarose beads, resolved on 5-15% SDS-PAGE and Western blotted using Leu3a monoclonal antibody. Lane 1 is MPB-labelled CEM-T4 CD4 and lane 2 is GSAO-B-labelled CEM-T4 CD04. Lane 3 is a control experiment where GSAO-B was incubated with CEM-T4 cells in the presence of 400 μM DMP. Biotin-labelled proteins were from 2×10^6 cells. The positions of Mr markers in kDa are shown at left.
CEM-T4 cells were obtained from the NIH AIDS Research and Reference Reagent Program, Rockville, Mass., CEM-T4 (1 mL of 5×10^6 per mL in Hanks balanced salt solution) were incubated with either sulfosuccinimidobiotin (SSB), 3-(N-maleimidylpropionyl)biocytin (MPB), or GSAO-B (100 μM) for 30 min at room temperature SSB was from Pierce, Rockford, Ill. while MPB was from Molecular Probes, Eugene, Oreg.. Unreacted SSB was quenched with glycine (200 μM), while unreacted MPB was quenched with reduced glutathione (GSH, 200 μM) for 30 min at room temperature. The labelled cells were washed twice with PBS and sonicated in 1 mL of 50 mM Tris-HCl, 0.5 M NaCl, 1% (v/v) Triton X-100, 10 μM leupeptin, 10 μM aprotinin, 2 mM phenylmethylsulfonyl fluoride, 5 mM EDTA, pH 8.0 buffer at 4° C. […]
Labelled CD4 was detected by blotting with the Leu3a monoclonal antibody (FIG. 32).

bovine serum albumin = bovine serum albumin (Bos taurus, UniProt P02769); assay: GSAO-B labelling of purified protein, streptavidin-peroxidase blot (negative control protein); type: binding; settings: 100 μM GSAO-B, 5 μM protein, 30 minutes
Method: (§1) FIG. 14. Interaction of GSAO-B with PDI and thioredoxin. A Structure of GSAO-B. B Purified human recombinant PDI (5 μM), human recombinant thioredoxin (5 μM) or bovine serum albumin (5 ? M) was incubated with dithiothreitol (10 μM) for 60 minutes at room temperature to ensure that the active site disulfide(s) of PDI and thioredoxin were in the reduced dithiol form. GSAO-B (100 ? M) or GSAO-B and DMP (400 μM) was then added and the reactions incubated for 30 minutes at room temperature. The labelled PDI (lanes 1 and 2), thioredoxin (lanes 3 and 4) and albumin (lane 5) (75 pmoles) was resolved on […] SDS-PAGE, transferred to PVDF membrane, and blotted with streptavidin-peroxidase to detect the GSAO-B label. The positions of Mr markers are shown at left.
Human recombinant PDI and thioredoxin bound GSAO-B (FIG. 14). Recombinant human protein disulfide isomerase (PDI) was produced in E. coli and purified according to Jiang et al. (1999). […] Proteins were detected by Western blot using an anti-PDI murine monoclonal antibody (Jiang et al., 1999) (used at 2 μg per mL). […] Chemiluminescence films were analysed using a GS-700 Imaging Densitometer and Multi-Analyst software (Bio-Rad, Hercules, Calif.).

Thioredoxin = molecular target: T2, Thioredoxin (Homo sapiens, UniProt P10599); assay: GSAO-B labelling of purified protein, streptavidin-peroxidase blot; type: binding; settings: 100 μM GSAO-B, 5 μM protein, 30 minutes
T2 construct: purchased American Diagnostica, Greenwich, Conn; host or cells: E. coli
Method: as §1
(§2) Human recombinant PDI and thioredoxin bound GSAO-B (FIG. 14). Recombinant human protein disulfide isomerase (PDI) was produced in E. coli and purified according to Jiang et al. (1999). In the experiment, purified PDI, thioredoxin or albumin as negative control were incubated with a 2-fold molar excess of dithiothreitol for 60 minutes to ensure that the active site disulfides of PDI and thioredoxin were in the reduced dithiol state. The proteins were then incubated with GSAO-B or GSAO-B and a 4-fold molar excess of DMP for 30 minutes. Equivalent moles of the labeled proteins were resolved on SDS-PAGE, transferred to PVDF membrane, and blotted with streptavidin-peroxidase to detect the GSAO-B label. Samples were resolved on 4-15% SDS-PAGE under non-reducing conditions (Laemmli, 1970) and transferred to PVDF membrane. Proteins were detected by Western blot using an anti-PDI murine monoclonal antibody (Jiang et al., 1999) (used at 2 μg per mL). Rabbit anti-mouse horseradish peroxidase conjugated antibodies (Dako Corporation, Carpinteria, Calif.) were used at 1:2000 dilution. GSAO-B-labeled proteins were blotted with streptavidin peroxidase (Amersham, Sydney, NSW) used at 1:1000 dilution. […] Chemiluminescence films were analysed using a GS-700 Imaging Densitometer and Multi-Analyst software (Bio-Rad, Hercules, Calif.).

human recombinant PDI = molecular target: T3, human recombinant PDI (Homo sapiens, UniProt P07237); assay: as above; type: binding
T3 construct: made in house; host or cells: E. coli
Method: as §1, §2

T3 sequence (P07237 18-508): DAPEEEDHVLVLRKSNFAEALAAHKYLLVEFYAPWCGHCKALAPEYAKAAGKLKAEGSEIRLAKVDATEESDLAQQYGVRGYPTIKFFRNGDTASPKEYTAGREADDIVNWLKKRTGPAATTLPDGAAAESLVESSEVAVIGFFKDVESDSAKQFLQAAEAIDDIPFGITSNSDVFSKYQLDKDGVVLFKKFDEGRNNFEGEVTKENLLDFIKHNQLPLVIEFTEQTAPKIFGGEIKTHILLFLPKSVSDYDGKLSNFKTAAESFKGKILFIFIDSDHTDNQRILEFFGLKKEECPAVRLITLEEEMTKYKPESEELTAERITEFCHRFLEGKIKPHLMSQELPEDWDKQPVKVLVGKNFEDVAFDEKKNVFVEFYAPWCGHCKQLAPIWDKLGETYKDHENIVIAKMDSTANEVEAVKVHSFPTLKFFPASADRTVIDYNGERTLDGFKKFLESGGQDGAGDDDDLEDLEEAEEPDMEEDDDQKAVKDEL
Chain of bovine serum albumin (P02769 25-607): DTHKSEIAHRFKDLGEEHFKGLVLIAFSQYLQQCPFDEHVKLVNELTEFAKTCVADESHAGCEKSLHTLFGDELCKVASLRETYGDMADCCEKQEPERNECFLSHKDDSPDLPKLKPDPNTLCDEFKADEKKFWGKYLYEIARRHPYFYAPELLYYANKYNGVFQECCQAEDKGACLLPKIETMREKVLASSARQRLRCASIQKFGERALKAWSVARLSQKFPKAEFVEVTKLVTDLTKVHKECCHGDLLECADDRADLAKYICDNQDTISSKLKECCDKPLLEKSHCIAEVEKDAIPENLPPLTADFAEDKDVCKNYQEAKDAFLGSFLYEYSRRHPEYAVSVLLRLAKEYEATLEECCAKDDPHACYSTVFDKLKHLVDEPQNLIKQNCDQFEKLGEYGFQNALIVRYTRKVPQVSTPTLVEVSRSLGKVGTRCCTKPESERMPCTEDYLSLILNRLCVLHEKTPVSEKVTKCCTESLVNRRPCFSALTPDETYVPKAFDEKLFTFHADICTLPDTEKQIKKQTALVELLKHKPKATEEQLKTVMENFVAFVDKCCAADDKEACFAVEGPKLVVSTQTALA
T2 sequence (P10599 whole entry): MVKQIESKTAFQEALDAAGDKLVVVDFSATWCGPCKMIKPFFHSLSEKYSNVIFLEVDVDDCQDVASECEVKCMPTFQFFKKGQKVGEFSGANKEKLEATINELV

O=C(CCCC[C@@H]1SC[C@@H]2NC(=O)N[C@@H]21)NCCCC[C@H](NC(=O)CCN1C(=O)C=CC1=O)C(=O)O [MPB, 3-(N-maleimidylpropionyl)biocytin, reference compound]
inhibition of HIVIIIB entry (HIVIIIB): Inhibition of HIVIIIB entry

O=[As]c1ccc(NC(=O)CBr)cc1 (stereo not shown) [BRAO, 4-(N-(bromoacetyl)amino)-phenylarsenoxide]
stability of solutions towards oxidation [1]: deactivated over time by oxidation

4-(N-(S-(N-(6-(N-(6-(N-(biotinoyl)amino)hexanoyl)amino)hexanoyl)glutathionyl)acetyl)amino)phenylarsenoxide [GSAO-B]
labelling of cell surface PDI (PDI): PDI was one of the proteins on the endothelial cell surface that incorporated GSAO-B | incorporation in the presence of DMP (HMEC-1 or HUVE cells; 100 μM GSAO-B with 400 μM DMP): effectively no incorporation of GSAO-B in the presence of DMP | proteins on the endothelial cell surface that bind the compound (HMEC-1 or HUVE cells; 100 μM, 30 minutes): approximately ten proteins | labelling of T cell surface CD4 (cell surface CD4): incorporated GSAO-B | incorporation of GSAO-B label (bovine serum albumin): albumin did not | incorporation of GSAO-B label (Thioredoxin): incorporated GSAO-B | incorporation of GSAO-B label (human recombinant PDI; 100 μM GSAO-B, 5 μM protein, 30 minutes): incorporated GSAO-B | density of labeling of PDI relative to thioredoxin (human recombinant PDI; equivalent moles of protein): approximately twice that of thioredoxin

— US7498406B2, “Substantially cell membrane impermeable compound and use thereof” (priority 1999, dated 2009)
